Data published in paper PMC11711184, “Structural basis of THC analog activity at the Cannabinoid 1 receptor” (Nature Communications, 2025).

Molecular target: T1, CB1 (CB1-Nluc) (Homo sapiens, UniProt P21554)
T1 construct: gene CNR1; CB1 with C-terminal NanoLuc (CB1-Nluc), stably co-expressed in HEK293-TR cells with NES-venus-mini-Gsi (Gs-based chimera with Gi1 C-terminal residues) as BRET acceptor
Test: NanoBRET venus-mini-Gsi recruitment
Format: cell-based

T1 sequence (P21554 whole entry): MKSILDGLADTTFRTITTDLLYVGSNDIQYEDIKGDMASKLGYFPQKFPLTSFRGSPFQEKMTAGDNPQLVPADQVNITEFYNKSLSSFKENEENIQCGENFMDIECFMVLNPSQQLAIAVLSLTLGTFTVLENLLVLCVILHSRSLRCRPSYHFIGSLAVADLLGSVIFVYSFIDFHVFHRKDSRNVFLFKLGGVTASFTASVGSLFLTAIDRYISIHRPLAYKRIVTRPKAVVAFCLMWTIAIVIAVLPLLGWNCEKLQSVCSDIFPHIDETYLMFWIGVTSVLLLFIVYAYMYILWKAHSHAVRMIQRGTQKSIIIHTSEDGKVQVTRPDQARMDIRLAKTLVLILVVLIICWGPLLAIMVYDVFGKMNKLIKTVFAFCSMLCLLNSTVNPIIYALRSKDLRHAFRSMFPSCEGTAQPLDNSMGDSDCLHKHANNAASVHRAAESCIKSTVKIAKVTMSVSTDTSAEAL

Structure (SMILES) | EC50 [nM]
CCCCCCC(C)(C)c1cc(O)c2c(c1)OC(C)(C)C1CCC(=O)CC21 (centres unmarked) [Nabilone] | 13.8
CCCCCCC(C)(C)c1cc(O)c2c(c1)OC(C)(C)[C@@H]1CC[C@@H](CO)C[C@@H]21 [HU243] | 2.04
CCCc1cc(O)c2c(c1)OC(C)(C)[C@@H]1CCC(C)=C[C@@H]21 [THCv] | 200
CC(C)(CCCCCCN=C=S)c1cc(O)c2c(c1)OC(C)(C)[C@@H]1CC[C@@H](CO)C[C@@H]21 [AM841, (6aR,9 R,10aR)-9-(hydroxymethyl)-3-(8-isothiocyanato-2-methyloctan-2-yl)-6,6-dimethyl-6a,7,8,9,10,10a-hexahydro-6H-benzo[c]chromen-1-ol] | 3.39
CC1=CC[C@@H]2[C@@H](C1)c1c(O)cc(C(C)(C)CCCCCCBr)cc1OC2(C)C [AM11542, (6aR,10aR)-3-(8-bromo-2-methyloctan-2-yl)-6,6,9-trimethyl-6a,7,10,10a-tetrahydro-6H-benzo[c]chromen-1-ol] | 3.39
CCCCCCC(C)(C)c1cc(O)c2c(c1)OC(C)(C)[C@@H]1CC=C(CO)C[C@@H]21 [HU210, (6aR)-trans-3-(1,1-Dimethylheptyl)-6a,7,10,10a-tetrahydro-1-hydroxy-6,6-dimethyl-6H-dibenzo[b,d]pyran-9-methanol] | 2.4
CCCC(C)(C)c1ccc2c(c1)OC(C)(C)[C@@H]1CC=C(C)C[C@@H]21 [JWH133, (6aR,10aR)-3-(1,1-Dimethylbutyl)-6a,7,10,10a-tetrahydro-6,6,9-trimethyl-6H-dibenzo[b,d]pyran] | 1150
CCCCCCC(C)(C)c1cc(OC)c2c(c1)OC(C)(C)[C@@H]1CC=C(C)C[C@@H]21 [L759633] | 417
